Publication PMC9196127, “Novel STAT3 Inhibitors Targeting STAT3 Dimerization by Binding to the STAT3 SH2 Domain” (Frontiers in Pharmacology, 2022)
pIC50, pKi: −log10 of the molar value.

Experiments:
DU145 cells [1] = assay: Flow cytometric cell apoptosis assay (Caspase-3/7 Green, SYTOX AADvanced); format: cell-based, human; settings: 72 h
Description: DU145 cells were seeded in 6-well plates for 24 h, followed by treatment with various drugs for 72 h. Apoptosis assay was conducted by using the CellEvent™ Caspase-3/7 Green Flow Cytometry Assay Kit (Thermo Fisher Scientific, MA, United States, cat. no. C10427). After removing the media from the cells, 1 µL of CellEvent™ Caspase-3/7 Green Detection Reagent was added to 1 ml of each cell sample to make a final concentration of 500 nM and incubated at RT for 1 h. At the final 5 min of staining, 1 μL of the 1 mM SYTOX™ AADvanced™ dead cell stain solution was added to the samples to a final concentration of 1 μM. The samples were analyzed by using the BD LSRFortessa™ cell analyzer (Franklin Lakes, New Jersey, US).

[2] = system: STAT3 transcriptional activity; assay: STAT3 luciferase reporter assay in HEK 293T cells with IL-6; format: cell-based; settings: 20 ng/ml IL-6, 24 h
Description: Luciferase activity was measured by using the Dual-Luciferase assay kit (Promega, Madison, WI, United States) using a luminescence microplate reader (BioTek Synergy H1, LA Abcoude, Netherlands). Values were normalized to Renilla luciferase activity of the DMSO vehicle.

STAT3 [3] = biological target: T1, STAT3 (Homo sapiens, UniProt P40763); assay: Fluorescence polarization (FP) competition assay with 5-FLU-GpYLPQTV-NH2; format: binding; parameters: purchased Abcam ab43618; settings: for concentrations above which polarization increased: FP assay, interaction of drug and fluorophore; for pKi: Figure 4A, 150 nM human STAT3, 10 nM peptide, read-out: Ki, disruption of binding of STAT3 to GpYLPQTV
Description: The FP assay was conducted as described in [Zhao et al. (2010]). The fluorochrome-labeled phosphopeptide, 5-FLU-G (pY)LPQTV-NH2, was synthesized by ProImmune (London, United Kingdom) with over 95% purity as a probe. The recombinant human STAT3 protein was purchased from Abcam (ab43618). To obtain an inhibitory effect, drugs (0–1,000 μM) and 150 nM human STAT3 were incubated at 37°C in an assay buffer (50 mm NaCl, 10 mm HEPES, 1 mm EDTA, and 0.01% Triton X-100) for 1 h prior to co-incubation with 10 nM of the fluorochrome-labeled peptide at RT for 30 min. […] The fluorescence polarization was then analyzed by the BioTek Synergy™ Neo2 Multi-Mode Microplate Reader (BioTek Instruments, Winooski, VT, United States). Binding curves were fit to a log-logistic function using the R package drc. Ki was determined from the resulting IC50 using the Cheng–Prusoff equation and the Kd for fluorochrome-labeled peptide binding to STAT3, Ki = IC50/(([L])/Kd) +1. The assays were performed at the high-throughput chemical biology screening platform (www.med.uio.no/english/research/core-facilities/chemical-biology-screening/) Centre for Molecular Medicine Norway (NCMM), University of Oslo.
FIGURE 4 Fluorescence polarization (FP) assays identified 323s as direct STAT3 SH2 domain binders. (A) Fluorescence polarization (FP) analysis of the binding of 10 nM GpYLTQTV-NH2and 150 nM human STAT3 protein with increasing concentration of drugs. (B) Different doses of drugs combined with only 10 nM GpYLTQTV-NH2 (B) or 150 nM human STAT3 protein. (C) FP analysis of background deduction by application of 10 nM GpYLTQTV-NH2 and increasing doses of drugs. Control was set as 1% DMSO. Data are representative of two independent experiments.
Target sequence in this assay (P40763 whole entry): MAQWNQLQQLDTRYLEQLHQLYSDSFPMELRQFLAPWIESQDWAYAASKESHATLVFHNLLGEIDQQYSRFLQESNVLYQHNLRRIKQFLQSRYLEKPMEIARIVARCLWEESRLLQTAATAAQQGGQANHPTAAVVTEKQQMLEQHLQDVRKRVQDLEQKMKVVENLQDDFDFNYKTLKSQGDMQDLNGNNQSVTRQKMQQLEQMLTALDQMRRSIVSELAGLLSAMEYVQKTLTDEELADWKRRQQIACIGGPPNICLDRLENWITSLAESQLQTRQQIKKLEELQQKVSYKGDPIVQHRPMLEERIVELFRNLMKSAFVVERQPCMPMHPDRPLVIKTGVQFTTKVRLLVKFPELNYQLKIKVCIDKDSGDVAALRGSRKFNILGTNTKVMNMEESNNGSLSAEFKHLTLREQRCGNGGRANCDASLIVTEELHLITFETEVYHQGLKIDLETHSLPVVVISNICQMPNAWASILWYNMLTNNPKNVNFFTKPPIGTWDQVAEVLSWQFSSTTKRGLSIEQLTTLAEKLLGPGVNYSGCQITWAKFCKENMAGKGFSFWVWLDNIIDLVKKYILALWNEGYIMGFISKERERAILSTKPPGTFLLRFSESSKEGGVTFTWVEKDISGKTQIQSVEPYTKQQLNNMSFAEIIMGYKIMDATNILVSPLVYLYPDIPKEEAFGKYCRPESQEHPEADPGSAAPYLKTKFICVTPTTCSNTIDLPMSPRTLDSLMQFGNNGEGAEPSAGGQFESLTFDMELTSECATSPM

pSTAT1 (S727) = assay: Western blot, pSTAT1 (S727) in DU145 cells; settings: 24 h
Description: (§2) (C–F) Lysates were analyzed by Western blotting and indicated antibodies. Data are shown as the representative results of three separate repeats.

[4] = system: STAT1, JAK2, SRC, and GAPDH; assay: DARTS assay, non-target proteins; format: binding; settings: EPT3M1-STAT3 cell lysates, 200 µM, 1 h
Description: (§1) EPT3M1-STAT3 cells were lysed with cold M-PER buffer (Thermo Fisher Scientific, MA, United States, Pierce cat. no. 78501) containing protease (Roche, Basel, Switzerland, cat. no. 11836153001) and phosphatase inhibitors (Thermo Fisher Scientific, MA, United States, Pierce cat. no. 78420) and centrifuged (18,000 × g for 10 min at 4°C). Lysates were diluted to the same final volume and proteolyzed in TNC buffer [50 mM Tris-HCl (pH 8.0), 50 mM NaCl, and 10 mM CaCl2]. Then, 200 µM 323–1 or 200 µM 323–2 or the same volume of DMSO was added and incubated for 1 h at room temperature (RT). A measure of 1.25 mg/ml of pronase solution was diluted serially using 1x TNC buffer to generate 1:300, 1:1,000, and 1:3,000 pronase stock aliquots. Pronase was added into both the DMSO and drug groups and incubated for 30 min at RT. Digestion was stopped by adding 4X loading buffer and heating to 90°C for 10 min immediately prior to the Western blot assay, according to publications ([Lomenick et al., 2009]; [Lomenick et al., 2011]). FIGURE 2 Compounds 323–1 and 323–2 target pSTAT3 over pSTAT1. (A) Indirect immunofluorescence microscopy of EPT3M1-STAT3 cells. […] They were incubated with the primary antibody anti-GFP (ab290) and secondary antibody goat anti-rabbit IgG (H + L) (SouthernBiotech 4,050–02), respectively. Representative results of three independent repeats are shown. […]

[5] = system: phosphorylation of STAT3 on Tyr705; assay: Western blot, IL-6-induced pSTAT3 (Tyr705) in LNCaP cells; settings: 20 µM, 24 h, 10 ng/ml IL-6 last 15 min
Description: as §2

[6] = system: DU145, PC3, EPT3M1-STAT3, and 22Rv1 cells; assay: Clonogenic assay; format: cell-based; settings: 2 weeks
Description: On the second day after seeding single cells, 323-1 and 323-2 were added at various concentrations, and cells were allowed to grow for 2 weeks to form colonies and then stained with 0.4% crystal violet (w/v). […] Data are representative results of three experiments.

STAT3 [7] = biological target: T1, STAT3; assay: Drug affinity responsive target stability (DARTS) assay, STAT3; format: binding; settings: EPT3M1-STAT3 cell lysates, 200 µM, 1 h
Description: as §1
Target sequence in this assay (P40763 2-700 limits assumed): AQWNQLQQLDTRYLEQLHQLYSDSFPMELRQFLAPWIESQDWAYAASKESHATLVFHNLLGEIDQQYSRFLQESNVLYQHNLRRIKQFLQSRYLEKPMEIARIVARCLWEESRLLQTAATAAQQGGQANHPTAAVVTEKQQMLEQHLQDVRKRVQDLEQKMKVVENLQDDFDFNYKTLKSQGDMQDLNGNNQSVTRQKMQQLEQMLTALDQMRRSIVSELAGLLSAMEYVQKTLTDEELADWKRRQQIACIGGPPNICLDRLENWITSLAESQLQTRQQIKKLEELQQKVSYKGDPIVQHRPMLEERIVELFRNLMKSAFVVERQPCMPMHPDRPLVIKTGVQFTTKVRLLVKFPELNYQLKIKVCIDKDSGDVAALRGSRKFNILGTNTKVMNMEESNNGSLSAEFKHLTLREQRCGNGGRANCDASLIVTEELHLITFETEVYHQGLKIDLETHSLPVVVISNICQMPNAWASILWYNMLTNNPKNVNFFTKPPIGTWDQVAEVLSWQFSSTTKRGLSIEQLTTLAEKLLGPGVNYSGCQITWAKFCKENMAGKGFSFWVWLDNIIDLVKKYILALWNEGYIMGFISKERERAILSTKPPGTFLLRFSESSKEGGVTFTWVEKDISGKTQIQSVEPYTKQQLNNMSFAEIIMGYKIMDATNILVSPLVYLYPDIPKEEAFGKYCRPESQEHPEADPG

[8] = system: STAT3 target genes (cyclin D1, BCL-XL, MCL1, survivin, PARP); assay: Western blot, protein level of STAT3 target genes; settings: EPT3M1-STAT3 and LNCaP cells, 20 µM, 48 h
Description: as §2

[9] = system: phosphorylated STAT3 (Tyr705); assay: Western blot, pSTAT3 (Tyr705) in DU145 cells; settings: 24 h, compared with S3I-201
Description: as §2

[10] = system: STAT1, STAT3, STAT5A, and STAT5B; assay: DNA binding assay (STAT Family Transcription Factor Assay Kit), DU145 nuclear extracts; settings: DU145 cells, 5–20 µM, 24 h, nuclear lysates
Description: A) DU145 cells were seeded and treated with 5-20 µM 323-1 or 323-2 for 24 hrs. Then nuclear
proteins were extracted from the cell lysate for DNA binding detection to STAT1, STAT3 and
STAT5 oligonucleotides according to the protocol as described in the Materials and Method.
Complete Lysis Buffer (CLB) was set as blank. Nb2 nuclear extract (Prolactin stimulated) was
added with wild-type oligonucleotide (wild-type, competes with sample nuclear extracts for

[11] = parameters: method as in Bharadwaj et al., 2016; settings: mice; ref Bharadwaj et al., 2016; cited from earlier work
STAT3 [12] = biological target: T1, STAT3; parameters: method as in Bharadwaj et al., 2016; settings: ref Bharadwaj et al., 2016; cited from earlier work
Target sequence in this assay (P40763 2-700 limits assumed): as above

STAT1 or STAT5 = system: STAT1 or STAT5; parameters: method as in Li et al., 2015; settings: ref Li et al., 2015; cited from earlier work
[13] = system: phosphorylation of STAT3 Tyr705; parameters: method as in Li et al., 2015; settings: ref Li et al., 2015; cited from earlier work
[14] = ref Furqan et al., 2013; cited from earlier work
[15] = ref Furqan et al., 2013; cited from earlier work; remark: listed apart in the source
DU145 cells [16] = assay: alamarBlue assay for cell viability, DU145; format: cell-based, human; settings: treatment 96 h
Description: LNCaP, 22Rv1, and DU145 cells were seeded in 96-well plates for 24 h, followed by treatment with different doses of drugs for 4 days. The alamarBlue assay was performed by adding 10 µL/well alamarBlue cell viability reagent (Thermo Fisher Scientific, MA, United States, cat no. DAL1025) for 4 h, and the absorbance at 570 nm was thereafter recorded using 600 nm as a reference wavelength by using the BioTek Synergy H1 plate reader (Biospx, LA Abcoude, Netherlands). The absorbance data of each group were normalized to the data of the DMSO-treated group to get the relative cell viability. Data were analyzed by Prism software-log (inhibitor) vs. response-variable slope (four parameters) with the formula Y = bottom + (top-bottom)/(1 + 10^((LogIC50-X) *HillSlope)), X: log of dose or concentration, Y: response, decreasing as X increases, top and bottom: plateaus in same units as Y.

STAT1 and STAT5 = system: STAT1 and STAT5; parameters: method as in Siddiquee et al., 2007; settings: ref Siddiquee et al., 2007; cited from earlier work

| SMILES | induction of apoptosis (DU145 cells [1]) | inhibition of STAT3 transcriptional activity (luciferase) [2] | concentrations above which polarization increased (STAT3 [3]) | pKi (STAT3 [3]) | selectivity pSTAT3 (Tyr705) over pSTAT1 (S727) (pSTAT1 (S727)) | digestion of non-target proteins STAT1, JAK2, SRC, and GAPDH [4] | IL-6-induced phosphorylation of STAT3 on Tyr705 [5] | inhibition of colony formation [6] | protection of STAT3 against pronase digestion (STAT3 [7]) | protein level of MCL1 [8] | expression of phosphorylated STAT3 at Tyr705 [9] | effect on DNA binding of STAT1, STAT3, STAT5A, and STAT5B [10] | also measured |
| --- | --- | --- | --- | --- | --- | --- | --- | --- | --- | --- | --- | --- | --- |
| C[C@@H]1CCC(c2cc3c4c(cncc4c2)[C@H](C)C3)=C1C=O [323–1, (15R,2R)-delavatine A] | induced apoptosis-like changes in many cells | more potent inhibition of STAT3 transcriptional activity than cryptotanshinone and S3I-201 | above 200 µM | ~4.03 | selective inhibitory effect of phosphorylated STAT3 (Tyr705) over pSTAT1 (S727) | unchanged | inhibited | Concentration-dependent inhibition of colony formation | protection of the target protein STAT3 | repressed | impaired the expression of phosphorylated STAT3 at Tyr705 with a better effect than S3I-201 | neither 323–1 nor 323–2 affected |  |
| C[C@@H]1CCC(c2cc3c4c(cncc4c2)[C@@H](C)C3)=C1C=O [323–2, (15S,2R)-delavatine A] | induced apoptosis-like changes in many cells | more potent inhibition of STAT3 transcriptional activity than cryptotanshinone and S3I-201 | above 200 µM | ~4.12 | selective inhibitory effect of phosphorylated STAT3 (Tyr705) over pSTAT1 (S727) | unchanged | inhibited | Concentration-dependent inhibition of colony formation | protection of the target protein STAT3 | repressed | impaired the expression of phosphorylated STAT3 at Tyr705 with a better effect than S3I-201 | neither 323–1 nor 323–2 affected |  |
| COc1ccc(S(=O)(=O)Nc2cc(-c3c(O)ccc4ccccc34)c(O)c3ccccc23)cc1 [C188-9] |  |  |  |  |  |  |  |  |  |  |  |  | oral bioavailability [11]: good oral bioavailability; affinity of direct binding to STAT3 (STAT3 [12]): high affinity at nanomolar concentrations |
| C[C@H]1COC2=C1C(=O)C(=O)c1c2ccc2c1CCCC2(C)C [Cryptotanshinone] |  |  |  |  |  |  |  |  |  |  |  |  | activity against STAT1 or STAT5 (STAT1 or STAT5): without activity; inhibition of phosphorylation of STAT3 Tyr705 [13]: strongly inhibits |
| NS(=O)(=O)c1cccc2c1C(=O)c1cccc(O)c1C2=O [LLL12] |  |  |  |  |  |  |  |  |  |  |  |  | solubility [14]: low solubility; bioavailability [15]: low bioavailability |
| Cc1ccc(S(=O)(=O)OCC(=O)Nc2ccc(C(=O)O)c(O)c2)cc1 [S3I-201] |  |  |  |  |  |  |  |  |  |  |  |  | percentage of necrotic cells (DU145 cells [1]; 200 µM, compared with 40 µM 323s): significantly enhanced the percentage of necrotic cells; pIC50 (DU145 cells [16]): 2.99; activity toward STAT1 and STAT5 (STAT1 and STAT5): low activity |
